In patent US20250195530A1, “POLQ INHIBITORS” (ASTRAZENECA AB, priority 2022, published 2025):

Assays:
DLD-1 BRCA2−/− cells = assay: Homologous recombination synthetic lethal inhibition of proliferation, DLD-1 BRCA2-/- (Cell Titre Glo 3D); format: cell-based; settings: Homo sapiens, DLD-1, 288 h, DLD-1 BRCA2−/− cells, 12 days; read-out: POLQ PD Prolif Lumin BRCA2 −/− mean pIC50 (converted)
Summary of the method: (§1)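 Read-out: CellTiter-Glo 3D luminescence, day 7 for wt DLD-1, day 12 for BRCA2−/−, about 8-9 population doublings each. Seeding 1,500 or 3,000 cells/mL respectively. Dose range 10 μM–0.51 nM, 3-fold, 10 points, with re-dosing on day 6. IC50 from curve fit.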

DLD-1 cells = assay: Inhibition of proliferation, DLD-1 BRCA2 wt control (Cell Titre Glo 3D); format: cell-based; settings: Homo sapiens, DLD-1, 168 h, DLD-1 BRCA2 wt cells, 7 days; read-out: POLQ PD Prolif Lumin DLD1 mean pIC50 (converted)
Summary of the method: as §1

SMILES	IC50 (DLD-1 cells) [nM]	IC50 (DLD-1 BRCA2−/− cells) [nM]
Cc1cc(OCCCN2CCCC2)ncc1-c1nc2c(OC3(C)CC3)ncnc2n1Cc1ccccc1 [Example G5, 9-benzyl-8-(4-methyl-6-(3-(pyrrolidin-1-yl)propoxy)pyridin-3-yl)-6-(1-methylcyclopropoxy)-9H-purine]	7940	398
Cc1cc(OCCN2CCNCC2)ncc1-c1nc2c(OC3(C)CC3)ncnc2n1Cc1ccccc1 [Example G6, 9-benzyl-8-(4-methyl-6-(2-(piperazin-1-yl)ethoxy)pyridin-3-yl)-6-(1-methylcyclopropoxy)-9H-purine]	> 10000	501
Cc1cc(OCCCN2CCOCC2)ncc1-c1nc2c(OC3(C)CC3)ncnc2n1Cc1ccccc1 [Example G7, 4-(3-((5-(9-benzyl-6-(1-methylcyclopropoxy)-9H-purin-8-yl)-4-methylpyridin-2-yl)oxy)propyl)morpholine]	> 10000	398
Cc1cc(OCCN)ncc1-c1nc2c(OC3(C)CC3)ncnc2n1Cc1ccccc1 [Example G8, 2-((5-(9-benzyl-6-(1-methylcyclopropoxy)-9H-purin-8-yl)-4-methylpyridin-2-yl)oxy)ethan-1-amine]	7940	2000
Cc1cc(OCCCN)ncc1-c1nc2c(OC3(C)CC3)ncnc2n1Cc1ccccc1 [Example G9, 3-((5-(9-benzyl-6-(1-methylcyclopropoxy)-9H-purin-8-yl)-4-methylpyridin-2-yl)oxy)propan-1-amine]	1580	794
CC(=O)N1CC(Oc2cc(C)c(-c3nc4c(OC5(C)CC5)ncnc4n3Cc3ccccc3)cn2)C1 [Example G10, 1-(3-((5-(9-benzyl-6-(1-methylcyclopropoxy)-9H-purin-8-yl)-4-methylpyridin-2-yl)oxy)azetidin-1-yl)ethan-1-one]	> 10000	631
Cc1cc(O[C@H]2CCNC2)ncc1-c1nc2c(OC3(C)CC3)ncnc2n1Cc1ccccc1 [Example G11, (S)-9-benzyl-8-(4-methyl-6-(pyrrolidin-3-yloxy)pyridin-3-yl)-6-(1-methylcyclopropoxy)-9H-purine]	6310	1260
Cc1cc(OCCN(C)C)ncc1-c1nc2c(OC3(C)CC3)ncnc2n1Cc1ccccc1 [Example G12, 2-((5-(9-benzyl-6-(1-methylcyclopropoxy)-9H-purin-8-yl)-4-methylpyridin-2-yl)oxy)-N,N-dimethylethan-1-amine]	> 10000	316
Cc1cc(O[C@H]2CCCNC2)ncc1-c1nc2c(OC3(C)CC3)ncnc2n1Cc1ccccc1 [Example G13, (S)-9-benzyl-8-(4-methyl-6-(piperidin-3-yloxy)pyridin-3-yl)-6-(1-methylcyclopropoxy)-9H-purine]	> 10000	501
Cc1c(-c2nc3c(OC4(C)CC4)ncnc3n2Cc2ccccc2)ccnc1OCCN1CCNCC1 [Example G14, 9-benzyl-8-(3-methyl-2-(2-(piperazin-1-yl)ethoxy)pyridin-4-yl)-6-(1-methylcyclopropoxy)-9H-purine]	7940	794
Cc1cc(OC[C@H]2CNCCO2)ncc1-c1nc2c(OC3(C)CC3)ncnc2n1Cc1ccccc1 [Example G15, (R)-2-(((5-(9-benzyl-6-(1-methylcyclopropoxy)-9H-purin-8-yl)-4-methylpyridin-2-yl)oxy)methyl)morpholine]	> 10000	398
Cc1cc(OC[C@H]2COCCN2)ncc1-c1nc2c(OC3(C)CC3)ncnc2n1Cc1ccccc1 [Example G16, (R)-3-(((5-(9-benzyl-6-(1-methylcyclopropoxy)-9H-purin-8-yl)-4-methylpyridin-2-yl)oxy)methyl)morpholine]	> 10000	794

Continued, in another order:

IC50 (DLD-1 cells) [nM]	SMILES	IC50 (DLD-1 BRCA2−/− cells) [nM]
3980	CN1CCN(CCOc2cc(F)c(-c3nc4c(OC5(C)CC5)ncnc4n3Cc3ccccc3)c(F)c2)CC1 [Example H1, 9-benzyl-8-(2,6-difluoro-4-(2-(4-methylpiperazin-1-yl)ethoxy)phenyl)-6-(1-methylcyclopropoxy)-9H-purine]	200
3160	CN1CCN(CCOc2ccc(-c3nc4c(OC5(C)CC5)ncnc4n3Cc3ccccc3)c(F)c2)CC1 [Example H2, 9-benzyl-8-(2-fluoro-4-(2-(4-methylpiperazin-1-yl)ethoxy)phenyl)-6-(1-methylcyclopropoxy)-9H-purine]	126
7940	COc1cc(OCCN2CCN(C)CC2)ccc1-c1nc2c(OC3(C)CC3)ncnc2n1Cc1ccccc1 [Example H3, 9-benzyl-8-(2-methoxy-4-(2-(4-methylpiperazin-1-yl)ethoxy)phenyl)-6-(1-methylcyclopropoxy)-9H-purine]	631
> 10000	Cc1cc(OCCN2CCN(C)CC2)cc(C)c1-c1nc2c(OC3(C)CC3)ncnc2n1Cc1ccccc1 [Example H4, 9-benzyl-8-(2,6-dimethyl-4-(2-(4-methylpiperazin-1-yl)ethoxy)phenyl)-6-(1-methylcyclopropoxy)-9H-purine]	251
7940	CN1CCN(CCOc2ccc(-c3nc4c(OC5(C)CC5)ncnc4n3Cc3ccccc3)c(F)c2F)CC1 [Example H5, 9-benzyl-8-(2,3-difluoro-4-(2-(4-methylpiperazin-1-yl)ethoxy)phenyl)-6-(1-methylcyclopropoxy)-9H-purine]	398
5010	CN1CCN(CCOc2ccc(-c3nc4c(OC5(C)CC5)ncnc4n3Cc3ccccc3)c(Br)c2)CC1 [Example H6, 9-benzyl-8-(2-bromo-4-(2-(4-methylpiperazin-1-yl)ethoxy)phenyl)-6-(1-methylcyclopropoxy)-9H-purine]	63.1
3160	CN1CCN(CCOc2ccc(-c3nc4c(OC5(C)CC5)ncnc4n3Cc3cccnc3)c(Cl)c2)CC1 [Example H7, 8-(2-chloro-4-(2-(4-methylpiperazin-1-yl)ethoxy)phenyl)-6-(1-methylcyclopropoxy)-9-(pyridin-3-ylmethyl)-9H-purine]	1000
> 10000	CN1CCN(CCOc2ccc(-c3nc4c(OC5(C)CC5)ncnc4n3Cc3ccccc3)c(C#N)c2)CC1 [Example H8, 2-(9-benzyl-6-(1-methylcyclopropoxy)-9H-purin-8-yl)-5-(2-(4-methylpiperazin-1-yl)ethoxy)benzonitrile]	398
3980	C#Cc1cc(OCCN2CCN(C)CC2)ccc1-c1nc2c(OC3(C)CC3)ncnc2n1Cc1ccccc1 [Example H9, 9-benzyl-8-(2-ethynyl-4-(2-(4-methylpiperazin-1-yl)ethoxy)phenyl)-6-(1-methylcyclopropoxy)-9H-purine]	501
> 10000	CN1CCN(CCOc2ccc(-c3nc4c(OC5(C)CC5)ncnc4n3Cc3ccccc3)c(CO)c2)CC1 [Example H10, (2-(9-benzyl-6-(1-methylcyclopropoxy)-9H-purin-8-yl)-5-(2-(4-methylpiperazin-1-yl)ethoxy)phenyl)methanol]	794
> 10000	CC1(Oc2ncnc3c2nc(-c2ccc(OCCC(=O)O)cc2Cl)n3Cc2ccccc2)CC1 [Example H11, 3-(4-(9-benzyl-6-(1-methylcyclopropoxy)-9H-purin-8-yl)-3-chlorophenoxy)propanoic acid]	1000
> 10000	CC1(Oc2ncnc3c2nc(-c2ccc(OCCN4CCC[C@H]4C(=O)O)cc2Cl)n3Cc2ccccc2)CC1 [Example H12, (2-(4-(9-benzyl-6-(1-methylcyclopropoxy)-9H-purin-8-yl)-3-chlorophenoxy)ethyl)-L-proline]	1000
3160	CC1(Oc2ncnc3c2nc(-c2ccc(OCCN4CC[C@@H](O)C4)cc2Cl)n3Cc2ccccc2)CC1 [Example H13, (R)-1-(2-(4-(9-benzyl-6-(1-methylcyclopropoxy)-9H-purin-8-yl)-3-chlorophenoxy)ethyl)pyrrolidin-3-ol]	100
6310	CC1(Oc2ncnc3c2nc(-c2ccc(OCCN4CC(O)C4)cc2Cl)n3Cc2ccccc2)CC1 [Example H14, 1-(2-(4-(9-benzyl-6-(1-methylcyclopropoxy)-9H-purin-8-yl)-3-chlorophenoxy)ethyl)azetidin-3-ol]	126
1580	CC1(Oc2ncnc3c2nc(-c2ccc(OCCN4CCC(O)CC4)cc2Cl)n3Cc2ccccc2)CC1 [Example H15, 1-(2-(4-(9-benzyl-6-(1-methylcyclopropoxy)-9H-purin-8-yl)-3-chlorophenoxy)ethyl)piperidin-4-ol]	79.4
5010	CC1(Oc2ncnc3c2nc(-c2ccc(OCCN4CC5(CC(O)C5)C4)cc2Cl)n3Cc2ccccc2)CC1 [Example H16, 2-(2-(4-(9-benzyl-6-(1-methylcyclopropoxy)-9H-purin-8-yl)-3-chlorophenoxy)ethyl)-2-azaspiro[3.3]heptan-6-ol]	50.1
2000	CC1(Oc2ncnc3c2nc(-c2ccc(OCCCN4CC(O)C4)cc2Cl)n3Cc2ccccc2)CC1 [Example H17, 1-(3-(4-(9-benzyl-6-(1-methylcyclopropoxy)-9H-purin-8-yl)-3-chlorophenoxy)propyl)azetidin-3-ol]	63.1
3160	CC1(Oc2ncnc3c2nc(-c2ccc(OCCN4CC5(CCN5)C4)cc2Cl)n3Cc2ccccc2)CC1 [Example H18, 8-(4-(2-(1,6-diazaspiro[3.3]heptan-6-yl)ethoxy)-2-chlorophenyl)-9-benzyl-6-(1-methylcyclopropoxy)-9H-purine]	316
> 10000	C[C@H]1C(=O)NCCN1CCOc1ccc(-c2nc3c(OC4(C)CC4)ncnc3n2Cc2ccccc2)c(Cl)c1 [Example H19, (S)-4-(2-(4-(9-benzyl-6-(1-methylcyclopropoxy)-9H-purin-8-yl)-3-chlorophenoxy)ethyl)-3-methylpiperazin-2-one]	63.1
